The numbers were not newly measured in patent US20020040034A1, “Methods for treating allergic asthma using descarboethoxyloratadine” (priority 1997, published 2002), which cites them from elsewhere.

Data set [1] relates to melanoma and fibrosarcoma tumors.
Data set [2] deals with allergic bronchospasm. To be noted: milligram by milligram basis.

On to `CCOC(=O)N1CCC(=C2c3ccc(Cl)cc3CCc3cccnc32)CC1` [Loratadine], for which the “Association with tumor growth” value in data set [1] is “associated with growth of both melanoma and fibrosarcoma tumors”. Also, the “Inhibition of allergic bronchospasm, potency compared with terfenadine” value in data set [2] was “four times more potent than terfenadine”.

Take `COc1ccc(CCN2CCC(Nc3nc4ccccc4n3Cc3ccc(F)cc3)CC2)cc1` [astemizole]: the “Association with tumor growth” value in data set [1] was “associated with growth of both melanoma and fibrosarcoma tumors”.
